Reference: ChEMBL document CHEMBL4011609, “Discovery of novel BRD4 inhibitors by high-throughput screening, crystallography, and cell-based assays” (Bioorg Med Chem Lett, 2017)
The source made the active and inactive calls. The calls are words filed in the database; no cut-off is given here.

Tests used:
[1] = biological target: Nucleosome-remodeling factor subunit BPTF (Homo sapiens) (UniProt Q12830); experiment: Inhibition of FALZ (unknown origin) at 50 uM using acetylated lysine as substrate relative to control
MV4-11 [2] = experiment: Cell cycle arrest in human MV4-11 cells assessed as accumulation at G0/G1 phase at 27 uM after 24 hrs by propidium iodide/RNase staining based flow cytometry (reference value: 57.54%); format: functional
[3] = biological target: T1, Bromodomain-containing protein 7 (Homo sapiens) (UniProt Q9NPI1); experiment: Inhibition of BRD7 (unknown origin) at 100 uM using acetylated lysine as substrate relative to control
T1 sequence (whole entry): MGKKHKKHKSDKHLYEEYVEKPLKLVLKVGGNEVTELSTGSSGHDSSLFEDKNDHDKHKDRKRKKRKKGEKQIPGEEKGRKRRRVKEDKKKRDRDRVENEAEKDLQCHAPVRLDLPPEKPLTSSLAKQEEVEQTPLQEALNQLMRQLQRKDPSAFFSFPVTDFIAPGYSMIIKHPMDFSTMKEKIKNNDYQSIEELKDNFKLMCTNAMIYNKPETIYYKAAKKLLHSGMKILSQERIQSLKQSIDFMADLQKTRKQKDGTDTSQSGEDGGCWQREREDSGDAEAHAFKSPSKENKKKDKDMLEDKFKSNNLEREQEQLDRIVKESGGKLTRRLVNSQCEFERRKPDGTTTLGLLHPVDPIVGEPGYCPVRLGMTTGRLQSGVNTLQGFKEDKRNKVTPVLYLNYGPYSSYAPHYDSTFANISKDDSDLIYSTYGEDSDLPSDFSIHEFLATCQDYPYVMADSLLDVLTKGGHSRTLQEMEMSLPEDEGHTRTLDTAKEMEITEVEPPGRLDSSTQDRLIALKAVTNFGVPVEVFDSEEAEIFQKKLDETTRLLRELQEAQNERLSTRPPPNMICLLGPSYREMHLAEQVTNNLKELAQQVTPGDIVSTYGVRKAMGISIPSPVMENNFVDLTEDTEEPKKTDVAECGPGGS

[4] = biological target: T2, Bromodomain-containing protein 4 (Homo sapiens, UniProt O60885); experiment: Inhibition of human BRD4-BD1 (49 to 170 residues) expressed in Escherichia coli BL21(DE3) using N-C:SGRG-K(Ac)-GG-K(Ac)-GLG-K(Ac)-GGA-K(Ac)-RHRKVGG-K(biotin) as substrate preincubated for 15 mins followed by substrate addition measured after 5 mins by AlphaScreen assay
[5] = biological target: T3, Bromodomain-containing protein 9 (Homo sapiens) (UniProt Q9H8M2); experiment: Inhibition of BRD9 (unknown origin) at 100 uM using acetylated lysine as substrate relative to control
T3 sequence (whole entry): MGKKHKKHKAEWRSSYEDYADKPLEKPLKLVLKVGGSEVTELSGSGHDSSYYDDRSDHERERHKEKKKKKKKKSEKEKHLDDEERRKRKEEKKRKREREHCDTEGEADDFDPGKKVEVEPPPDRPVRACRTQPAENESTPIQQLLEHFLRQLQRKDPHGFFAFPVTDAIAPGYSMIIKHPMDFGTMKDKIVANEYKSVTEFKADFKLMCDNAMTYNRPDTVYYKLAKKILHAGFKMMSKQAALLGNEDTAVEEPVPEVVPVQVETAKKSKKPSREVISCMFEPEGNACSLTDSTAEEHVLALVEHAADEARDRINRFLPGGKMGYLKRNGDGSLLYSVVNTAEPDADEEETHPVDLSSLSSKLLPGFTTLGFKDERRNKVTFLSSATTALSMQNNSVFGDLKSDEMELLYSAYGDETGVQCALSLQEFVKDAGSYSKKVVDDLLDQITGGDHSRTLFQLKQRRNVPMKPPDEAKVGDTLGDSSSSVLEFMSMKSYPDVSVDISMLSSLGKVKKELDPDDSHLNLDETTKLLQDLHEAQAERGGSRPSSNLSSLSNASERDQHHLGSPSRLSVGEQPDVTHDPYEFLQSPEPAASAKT

MV4-11 [6] = experiment: Induction of apoptosis in human MV4-11 cells assessed as necrotic cells at 27 uM after 72 hrs by Annexin V-FITC/propidium iodide staining based flow cytometry (reference value: 1.68 %); format: functional
MV4-11 [7] = experiment: Antiproliferative activity against human MV4-11 cells after 3 days by Alamar blue assay; conditions: MV4-11, 72 h
[8] = biological target: T2, Bromodomain-containing protein 4; experiment: Binding affinity to human BRD4 BD1 (49 to 170 residues) expressed in Escherichia coli BL21(DE3) assessed as change in melting temperature at 100 uM by SYPRO Orange probe-based Real-Time PCR method
[9] = biological target: T2, Bromodomain-containing protein 4; experiment: Inhibition of BRD4 BD1 in human MV4-11 cells assessed as reduction in CDK6 mRNA level at 10 to 30 uM after 6 hrs by Sybr green dye based qRT-PCR analysis; format: cell-based
[10] = biological target: SWI/SNF-related matrix-associated actin-dependent regulator of chromatin subfamily A member 2 (Homo sapiens) (UniProt P51531); experiment: Inhibition of SMARCA2 (unknown origin) at 100 uM using acetylated lysine as substrate relative to control
Sequence of SWI/SNF-related matrix-associated actin-dependent regulator of chromatin subfamily A member 2 (Homo sapiens) (P51531 whole entry): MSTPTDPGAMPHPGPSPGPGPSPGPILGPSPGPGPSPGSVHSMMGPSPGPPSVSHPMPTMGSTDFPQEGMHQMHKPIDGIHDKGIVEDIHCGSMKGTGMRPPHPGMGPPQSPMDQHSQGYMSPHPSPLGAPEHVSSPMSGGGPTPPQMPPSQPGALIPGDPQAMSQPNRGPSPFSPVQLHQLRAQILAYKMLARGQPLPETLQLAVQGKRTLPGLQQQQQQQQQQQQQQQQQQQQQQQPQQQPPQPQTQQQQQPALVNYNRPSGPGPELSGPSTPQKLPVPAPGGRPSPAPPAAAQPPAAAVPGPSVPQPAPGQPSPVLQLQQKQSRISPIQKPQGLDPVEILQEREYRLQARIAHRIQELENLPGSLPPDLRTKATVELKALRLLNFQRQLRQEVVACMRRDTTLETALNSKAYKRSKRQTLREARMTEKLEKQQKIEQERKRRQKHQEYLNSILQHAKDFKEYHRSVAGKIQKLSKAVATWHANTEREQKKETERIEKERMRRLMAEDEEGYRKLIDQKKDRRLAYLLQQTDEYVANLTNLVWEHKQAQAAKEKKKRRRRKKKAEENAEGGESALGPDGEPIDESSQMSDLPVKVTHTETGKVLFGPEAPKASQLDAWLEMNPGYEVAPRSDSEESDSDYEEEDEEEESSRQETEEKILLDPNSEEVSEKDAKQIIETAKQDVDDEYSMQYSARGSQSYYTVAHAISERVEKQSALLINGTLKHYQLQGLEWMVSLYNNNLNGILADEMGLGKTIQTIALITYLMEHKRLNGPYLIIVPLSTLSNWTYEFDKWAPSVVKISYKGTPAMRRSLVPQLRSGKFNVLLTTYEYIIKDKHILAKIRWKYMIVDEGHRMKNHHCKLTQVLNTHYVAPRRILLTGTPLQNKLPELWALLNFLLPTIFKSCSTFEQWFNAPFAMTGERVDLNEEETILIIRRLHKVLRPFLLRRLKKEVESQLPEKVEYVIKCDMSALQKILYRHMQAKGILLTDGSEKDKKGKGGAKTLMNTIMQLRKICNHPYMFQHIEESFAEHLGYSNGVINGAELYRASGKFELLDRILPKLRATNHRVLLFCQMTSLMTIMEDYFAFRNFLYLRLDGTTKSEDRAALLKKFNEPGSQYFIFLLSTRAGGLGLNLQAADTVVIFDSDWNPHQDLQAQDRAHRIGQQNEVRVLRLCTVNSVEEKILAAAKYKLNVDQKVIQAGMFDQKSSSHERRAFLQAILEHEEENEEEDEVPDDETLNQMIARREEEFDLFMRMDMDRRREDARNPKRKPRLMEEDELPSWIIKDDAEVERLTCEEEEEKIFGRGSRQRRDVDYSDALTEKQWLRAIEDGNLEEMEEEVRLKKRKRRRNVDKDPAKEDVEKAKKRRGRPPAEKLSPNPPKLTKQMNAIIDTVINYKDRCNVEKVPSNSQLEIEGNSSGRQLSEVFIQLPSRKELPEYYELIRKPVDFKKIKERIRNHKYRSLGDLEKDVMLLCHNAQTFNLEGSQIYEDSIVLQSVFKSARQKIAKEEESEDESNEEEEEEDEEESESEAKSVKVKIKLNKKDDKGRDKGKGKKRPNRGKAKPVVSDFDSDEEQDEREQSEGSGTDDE

[11] = biological target: T3, Bromodomain-containing protein 9 (Homo sapiens); experiment: Inhibition of BRD9 (unknown origin) at 50 uM using acetylated lysine as substrate relative to control
MV4-11 [12] = experiment: Induction of apoptosis in human MV4-11 cells assessed as live cells at 27 uM after 72 hrs by Annexin V-FITC/propidium iodide staining based flow cytometry (reference value: 92 %); format: functional
[13] = biological target: T1, Bromodomain-containing protein 7 (Homo sapiens); experiment: Inhibition of BRD7 (unknown origin) at 50 uM using acetylated lysine as substrate relative to control
[14] = biological target: SWI/SNF-related matrix-associated actin-dependent regulator of chromatin subfamily A member 2 (Homo sapiens) (UniProt P51531); experiment: Inhibition of SMARCA2 (unknown origin) at 50 uM using acetylated lysine as substrate relative to control
[15] = biological target: T2, Bromodomain-containing protein 4; experiment: Inhibition of BRD4 BD1 in human MV4-11 cells assessed as reduction in c-Myc mRNA level at 10 to 30 uM after 6 hrs by Sybr green dye based qRT-PCR analysis; format: cell-based
MV4-11 [16] = experiment: Induction of apoptosis in human MV4-11 cells assessed as apoptotic cells at 27 uM after 72 hrs by Annexin V-FITC/propidium iodide staining based flow cytometry (reference value: 3.62 %); format: functional
[17] = biological target: T2, Bromodomain-containing protein 4; experiment: Binding affinity to human BRD4 BD1 (49 to 170 residues) expressed in Escherichia coli BL21(DE3) assessed as change in melting temperature by SYPRO Orange probe-based Real-Time PCR method
[18] = biological target: T2, Bromodomain-containing protein 4; experiment: Binding affinity to human BRD4 BD1 (49 to 170 residues) expressed in Escherichia coli BL21(DE3) assessed as change in melting temperature at 200 uM by SYPRO Orange probe-based Real-Time PCR method
MV4-11 [19] = experiment: Cell cycle arrest in human MV4-11 cells assessed as accumulation at S phase at 27 uM after 24 hrs by propidium iodide/RNase staining based flow cytometry (reference value: 31.98 %); format: functional
[20] = biological target: Nucleosome-remodeling factor subunit BPTF (Homo sapiens) (UniProt Q12830); experiment: Inhibition of FALZ (unknown origin) at 100 uM using acetylated lysine as substrate relative to control
[21] = biological target: T2, Bromodomain-containing protein 4; experiment: Inhibition of BRD4 BD1 in human MV4-11 cells assessed as reduction in c-Myc expression after 6 hrs by Western blot method; format: cell-based
[22] = biological target: T2, Bromodomain-containing protein 4; experiment: Binding affinity to human BRD4 BD1 (49 to 170 residues) expressed in Escherichia coli BL21(DE3) assessed as change in melting temperature at 50 uM by SYPRO Orange probe-based Real-Time PCR method
[23] = biological target: T2, Bromodomain-containing protein 4; experiment: Inhibition of BRD4 BD1 in human MV4-11 cells assessed as reduction in Bcl-2 mRNA level at 10 to 30 uM after 6 hrs by Sybr green dye based qRT-PCR analysis; format: cell-based
MV4-11 [24] = experiment: Antiproliferative activity against human MV4-11 cells after 7 days by Alamar blue assay; conditions: MV4-11, 168 h
MV4-11 [25] = experiment: Cell cycle arrest in human MV4-11 cells assessed as accumulation at G2 phase at 27 uM after 24 hrs by propidium iodide/RNase staining based flow cytometry (reference value: 10.48 %); format: functional

- inhibition [1]: inactive
- inhibition [3]: 16%
- IC50 [4]: 0.81 µM
- inhibition [5]: 12%
- IC50 (MV4-11 [7]): 18.8 µM
- ΔTm [8]: 3.06 °C
- inhibition [9]: Active
- inhibition [10]: inactive
- inhibition [11]: inactive
- inhibition [13]: 9%
- inhibition [14]: inactive
- inhibition [15]: Active
- deltaTm [17]: Dose-dependent effect
- ΔTm [18]: 7.07 °C
- inhibition [20]: inactive
- inhibition [21]: Dose-dependent effect
- ΔTm [22]: 0.85 °C
- inhibition [23]: Active
- IC50 (MV4-11 [24]): 10 µM
Compound: CN(CCCNc1cc(=O)oc2ccccc12)C(=O)c1cccs1
- Activity (MV4-11 [2]): 75.23%
- Activity (MV4-11 [6]): 6.9%
- Activity (MV4-11 [12]): 76.2%
- Activity (MV4-11 [16]): 10.7%
- Activity (MV4-11 [19]): 18.93%
- Activity (MV4-11 [25]): 5.84%
